{"source": "patent US5519038A", "about": "“N,N'-bis(alkoxyalkyl)-pyridine-2,4-dicarboxylic acid diamines” (Hoechst Aktiengesellschaft, priority 1989, dated 1996)", "key": {"[1]": {"assay": "Enteral absorbability: serum levels after intragastral administration", "format": "in vivo, female Wistar rats", "set-up": "unit not given here", "conditions": "50 mg/kg perorally (intragastral), mean of 4 measurements", "method": "The absorbability was investigated on Wistar rats to which the compounds according to the invention were administered intragastrally. The serum level dropped in the first hours after administration of the substance, and after about 5 hours reached a plateau which still fell only slightly. The good absorbability of the substances can be concluded from the initially very high serum level directly after administration of the substances.\nFemale Wistar rats of about 150 g body weight are given an intragastral administration of 50 mg/kg of the substance under investigation by means of a stomach probe.\nIn each case 4 rats are anesthetized after 5; 10; 15; 30; 60; 120; 180 and 240 minutes and exsanguinated via the Vena Cava. The blood is centrifuged immediately and the compound administered is extracted from the serum using ether. After the ether has been evaporated, the residue is taken up in […] of mobile phase. The mobile phase consists of 0.05M phosphoric acid and acetonitrile (4:1). 50 μl of this sample are injected into a high performance liquid chromatography column. Detection is performed under UV of 200 nm with a retention time of 2.2 minutes."}, "proline hydroxylase [2]": {"system": "proline hydroxylase", "conditions": "in words; K. Majamaa et al., 1984; cited from earlier work"}, "proline hydroxylase [3]": {"system": "proline hydroxylase", "conditions": "in words; Tschank, G. et al., 1987; cited from earlier work"}, "[4]": {"system": "liver hydroxyproline (proline hydroxylase and lysine hydroxylase)", "assay": "Pharmacological activity: inhibition of liver hydroxyproline synthesis in CCl4-treated rats", "format": "in vivo", "conditions": "versus CCl4 control"}, "[5]": {"system": "serum 7s-(IV)-collagen (proline hydroxylase and lysine hydroxylase)", "assay": "Pharmacological activity: inhibition of serum 7s-(IV)-collagen synthesis in CCl4-treated rats", "format": "in vivo", "conditions": "versus CCl4 control"}, "[6]": {"system": "Clq biosynthesis of macrophages", "conditions": "in words; W. Muller et al., 1978; cited from earlier work"}, "[7]": {"conditions": "120 minutes, DL = detection limit"}}}
{"smiles": "COC(CNC(=O)c1ccnc(C(=O)NCC(OC)OC)c1)OC", "note": "[Example 3, Pyridine-2,4-dicarboxylic acid bis-N,N'-(2-dimethoxyethyl) amide]", "values": [{"measurement": "Serum level (x, SD)", "setting": "[1]; 5 minutes", "result": "8.9 ± 3.1"}, {"measurement": "Serum level (x, SD)", "setting": "[1]; 10 minutes", "result": "11.5 ± 0.6"}, {"measurement": "Serum level (x, SD)", "setting": "[1]; 15 minutes", "result": "14.7 ± 1.9"}, {"measurement": "Serum level (x, SD)", "setting": "[1]; 30 minutes", "result": "10.7 ± 1.9"}, {"measurement": "Serum level (x, SD)", "setting": "[1]; 60 minutes", "result": "11.3 ± 1.5"}, {"measurement": "Serum level (x, SD)", "setting": "[1]; [7]", "result": "5.5 ± 0.9"}, {"measurement": "Serum level (x, SD)", "setting": "[1]; 180 minutes, DL = detection limit", "result": "2.9 ± 0.5"}, {"measurement": "Serum level (x, SD)", "setting": "[1]; 240 minutes, DL = detection limit", "result": "1.7 ± 0.4"}]}
{"smiles": "O=C(O)c1ccc(C(=O)O)nc1", "note": "[pyridine-2,5-dicarboxylic acid]", "values": [{"measurement": "Inhibition of proline hydroxylase", "setting": "proline hydroxylase [2]", "result": "inhibited effectively"}, {"measurement": "Activity as inhibitors in the cell culture", "setting": "proline hydroxylase [3]", "result": "effective as inhibitors only in very high concentrations"}]}
{"smiles": "CC(C)OCCCNC(=O)c1ccnc(C(=O)NCCCOC(C)C)c1", "note": "[20 (from SA-88-0896), N,N'-bis(3-isopropoxypropyl)-pyridine-2,4-dicarboxylic acid diamide, reference compound]", "values": [{"measurement": "Liver hydroxyproline [% inhibition]", "setting": "[4]; 2 × 25 mg, p.o.", "result": 49, "unit": "% inhibition"}, {"measurement": "Serum 7s-(IV)-collagen [% inhibition]", "setting": "[5]; 2 × 25 mg, p.o.", "result": 11, "unit": "% inhibition"}]}
{"smiles": "COCCNC(=O)c1ccnc(C(=O)NCCOC)c1", "note": "[19 (from SA-88-0896), N,N'-bis(2-methoxyethyl)-pyridine-2,4-dicarboxylic acid diamide, reference compound]", "values": [{"measurement": "Liver hydroxyproline [% inhibition]", "setting": "[4]; 2 × 25 mg, i.p.", "result": 55, "unit": "% inhibition"}, {"measurement": "Serum 7s-(IV)-collagen [% inhibition]", "setting": "[5]; 2 × 25 mg, i.p.", "result": 48, "unit": "% inhibition"}]}
{"smiles": "CCOCCCNC(=O)c1ccnc(C(=O)NCCCOCC)c1", "note": "[Example 2, Pyridine-2,4-dicarboxylic acid bis-N,N'-(ethoxypropyl)amide]", "values": [{"measurement": "Serum level (x, SD)", "setting": "[1]; 5 minutes", "result": "51.4 ± 11.2"}, {"measurement": "Serum level (x, SD)", "setting": "[1]; 10 minutes", "result": "39.2 ± 4.0"}, {"measurement": "Serum level (x, SD)", "setting": "[1]; 15 minutes", "result": "29.4 ± 6.7"}, {"measurement": "Serum level (x, SD)", "setting": "[1]; 30 minutes", "result": "15.2 ± 5.6"}, {"measurement": "Serum level (x, SD)", "setting": "[1]; 60 minutes", "result": "1.4 ± 1.0"}, {"measurement": "Liver hydroxyproline [% inhibition]", "setting": "[4]; 2 × 2 mg, p.o.", "result": 25, "unit": "% inhibition"}, {"measurement": "Liver hydroxyproline [% inhibition]", "setting": "[4]; 2 × 10 mg, p.o.", "result": 60, "unit": "% inhibition"}, {"measurement": "Serum 7s-(IV)-collagen [% inhibition]", "setting": "[5]; 2 × 2 mg, p.o.", "result": 2, "unit": "% inhibition"}, {"measurement": "Serum 7s-(IV)-collagen [% inhibition]", "setting": "[5]; 2 × 10 mg, p.o.", "result": 35, "unit": "% inhibition"}]}
{"smiles": "O=C(O)c1ccnc(C(=O)O)c1", "note": "[pyridine-2,4-dicarboxylic acid]", "values": [{"measurement": "Inhibition of proline hydroxylase", "setting": "proline hydroxylase [2]", "result": "inhibited effectively"}, {"measurement": "Activity as inhibitors in the cell culture", "setting": "proline hydroxylase [3]", "result": "effective as inhibitors only in very high concentrations"}]}
{"smiles": "c1ccc(-c2ccccn2)nc1", "note": "[α, α'-dipyridyl]", "values": [{"measurement": "Inhibition of Clq biosynthesis of macrophages", "setting": "[6]", "result": "leads to an inhibition of the Clq biosynthesis of macrophages"}]}
{"smiles": "COCCCNC(=O)c1ccnc(C(=O)NCCCOC)c1", "note": "[Example 1, Pyridine-2,4-dicarboxylic acid bis-N,N'-(methoxypropyl) amide]", "values": [{"measurement": "Serum level (x, SD)", "setting": "[1]; 5 minutes", "result": "45.3 ± 15.4"}, {"measurement": "Serum level (x, SD)", "setting": "[1]; 10 minutes", "result": "49.8 ± 3.6"}, {"measurement": "Serum level (x, SD)", "setting": "[1]; 15 minutes", "result": "39.9 ± 11.0"}, {"measurement": "Serum level (x, SD)", "setting": "[1]; 30 minutes", "result": "28.1 ± 3.2"}, {"measurement": "Serum level (x, SD)", "setting": "[1]; 60 minutes", "result": "9.4 ± 5.5"}, {"measurement": "Serum level (x, SD)", "setting": "[1]; [7]", "result": "0.3 ± 0.3"}, {"measurement": "Liver hydroxyproline [% inhibition]", "setting": "[4]; 2 × 2 mg, p.o.", "result": 62, "unit": "% inhibition"}, {"measurement": "Liver hydroxyproline [% inhibition]", "setting": "[4]; 2 × 10 mg, p.o.", "result": 90, "unit": "% inhibition"}, {"measurement": "Serum 7s-(IV)-collagen [% inhibition]", "setting": "[5]; 2 × 2 mg, p.o.", "result": 28, "unit": "% inhibition"}, {"measurement": "Serum 7s-(IV)-collagen [% inhibition]", "setting": "[5]; 2 × 10 mg, p.o.", "result": 67, "unit": "% inhibition"}]}
